{"source": "patent US5180840A", "about": "“Process for preparing analogs of artemisinin” (SRI International, priority 1991, dated 1993)", "key": {"[1]": {"tested_on": "D-6 African P. falciparum clone", "experiment": "in vitro testing against P. falciparum, D-6 African clone", "type": "cell-based", "excerpt": "(§1) The analog 1 was sent to Walter Reed Army Institute of Research (WRAIR) for in vitro testing against P. falciparum using modifications of the procedures of Desjardins et al, 1979, and Milhous et al, 1985, (Desjardins, R. E., C. J. Canfield, D. E. Haynes, and J. D. Chulay, Antimicrob. Angents Chemother., Vol. 16, 710-718 (1979); Milhous, W. K., N. F. Weatherly, J. H. Bowdre, and R. E. Desjardins, Antimicrob. Agents Chemother. Vol. 27, 525-530, 1985.) to assess the intrinsic activity of compound 1 as an anti-malarial drug relative to simultaneous known controls such as chloroquine, mefloquine; pyrimethamine, sulfadoxine, tetracycline, qinghaosu or quinine. Since some anti-malarials are more static than cidal in action, it is necessary to extend the incubation period to assess the effects of such drugs on parasite growth rates. In order to insure exponential parasite growth and maximum uptake of radioisotope throughout the extended incubation, reduced starting parasitemias (0.2%) and reduced red cell hematocrits (1.0%) are required. As a result, drugs which are actively incorporated into erythrocytes (such as chloroquine or qinghaosu) will have slightly lower 50% inhibitory concentrations than in other assay systems employing higher red cell hematocrits. Except for the contribution from the 10% normal pooled human plasma and added 10^-10 M (0.014 ng/ml) PABA, the culture medium is folate-free. The trace amount of PABA insures exponential growth of the sulfonamide-susceptible parasite clone without antagonizing the activity of antifol anti-malarials.\n(§2) All test compounds are solubilized in DMSO and diluted 400-fold (to rule out a DMSO effect) in culture medium with plasma for a starting concentration of at least 12,500 ng/ml. Drugs are subsequently diluted fivefold using the Cetus Pro/Pette™ system utilizing a range of concentrations from 0.8 ng/ml to 12,500 ng/ml. Fifty percent inhibitory concentrations are reported in ng/ml.\n(§3) Table 1 summarizes differences in the susceptibility profiles of the two control P. falciparum clones (Oduola, A. M. J., N. F. Weatherly, J. H. Bowdre, R. E. Desjardins, Thirty-second Annual Meeting, American Society of Tropical Medicine and Hygiene, San Antonio, Tex., Dec. 4-8, 1983) and provides results of testing. The W-2 Indochina P. falciparum clone is resistant to chloroquine, pyrimethamine and sulfadoxine but […]. The D-6 African P. falciparum clone is susceptible to chloroquine, pyrimethamine and sulfadoxine but […]."}, "[2]": {"tested_on": "W-2 Indochina P. falciparum clone", "experiment": "in vitro testing against P. falciparum, W-2 Indochina clone", "type": "cell-based", "details": "for IC50: Plasmodium falciparum", "excerpt": "as §1, §2, §3"}, "[3]": {"tested_on": "D-6 African P. falciparum clone", "details": "D-6 African clone; cited from earlier work"}, "[4]": {"tested_on": "W-2 Indochina P. falciparum clone", "details": "W-2 Indochina clone; cited from earlier work"}, "P. falciparum": {"tested_on": "P. falciparum", "experiment": "in vitro testing against P. falciparum (two strains together / assay medium)", "type": "cell-based", "excerpt": "as §1, with “Except for the contribution from the 10% normal pooled human plasma and added 10^-10 M (0.014 ng/ml) PABA, the culture medium is folate-free. The trace amount of PABA insures exponential growth of the sulfonamide-susceptible parasite clone without antagonizing the activity of antifol anti-malarials.” left out"}, "[5]": {"details": "Plasmodium falciparum, D-6 African clone (strain head not given; assigned), read-out: IN VITRO ED50 (fifty percent inhibitory concentration)"}, "[6]": {"details": "Plasmodium falciparum, D-6 African clone (strain head not given; assigned), read-out: IN VITRO ED50 (fifty percent inhibitory concentration), × 10^-9 M"}}, "note": "Like-named read-outs stand apart in the source and are kept apart here."}
{"smiles": "C[C@@H]1CC[C@H]2[C@@H](C)C(O)O[C@@H]3O[C@@]4(C)CC[C@@H]1[C@]32OO4", "note": "(stereo partly drawn) [Dihydro-quinghaosu]", "values": [{"measurement": "IC50", "setting": "[1]; [5]", "result": 0.47, "unit": "ng/mL"}, {"measurement": "IC50", "setting": "[1]; [6]", "result": 1.68, "unit": "nM"}]}
{"smiles": "C[C@@H]1CC[C@H]2[C@@H](C)C(=O)O[C@@H]3O[C@@]4(C)CC[C@@H]1[C@]32OO4", "note": "[Qinghaosu, artemisinin]", "values": [{"measurement": "IC50", "setting": "[1]; [5]", "result": 3.09, "unit": "ng/mL"}, {"measurement": "IC50", "setting": "[1]; [6]", "result": 11, "unit": "nM"}]}
{"smiles": "CCO[C@H]1O[C@@H]2O[C@@]3(C)CC[C@H]4[C@H](C)CC[C@@H]([C@H]1C)[C@@]24OO3", "note": "[Arteether]", "values": [{"measurement": "IN VITRO ED50 (fifty percent inhibitory concentration)", "setting": "[1]; D-6 African clone (strain head not given; assigned)", "result": 1.87, "unit": "ng/mL"}, {"measurement": "IC50", "setting": "[1]; D-6 African clone (strain head not given; assigned), read-out: IN VITRO ED50 (fifty percent inhibitory concentration), × 10^-9 M", "result": 6, "unit": "nM"}, {"measurement": "IN VITRO ED50 (fifty percent inhibitory concentration)", "setting": "[2]; W-2 Indochina clone (strain head not given; assigned)", "result": 1.23, "unit": "ng/mL"}]}
{"smiles": "CCN(CC)CCCC(C)Nc1ccnc2cc(Cl)ccc12", "note": "(stereo not drawn) [Chloroquine]", "values": [{"measurement": "IC50", "setting": "[1]; Plasmodium falciparum, read-out: IN VITRO ED50 (fifty percent inhibitory concentration), ng/ml", "result": 5.91, "unit": "ng/mL"}, {"measurement": "IC50", "setting": "[1]; Plasmodium falciparum, read-out: IN VITRO ED50 (fifty percent inhibitory concentration), × 10^-9 M", "result": 11.5, "unit": "nM"}, {"measurement": "IC50", "setting": "[2]; read-out: IN VITRO ED50 (fifty percent inhibitory concentration), ng/ml", "result": 26.8, "unit": "ng/mL"}, {"measurement": "IC50", "setting": "[2]; read-out: IN VITRO ED50 (fifty percent inhibitory concentration), × 10^-9 M", "result": 52.1, "unit": "nM"}, {"measurement": "susceptibility of the clone", "setting": "[3]", "result": "susceptible"}, {"measurement": "susceptibility of the clone", "setting": "[4]", "result": "resistant"}]}
{"smiles": "C[C@@]12CC[C@H]3CCC[C@H]4CC(=O)O[C@H](O1)[C@@]34OO2", "note": "(relative stereo) [Compound 1, (±)-13,14-desmethylartemisinin]", "values": [{"measurement": "antimalarial activity (in words)", "setting": "P. falciparum; data of Table 1", "result": "highly active antimalarial agent"}, {"measurement": "antimalarial potency", "setting": "P. falciparum; varies with strain, versus the other five compounds", "result": "still in the nanogram range"}, {"measurement": "IC50", "setting": "[1]; [5]", "result": 21.1, "unit": "ng/mL"}, {"measurement": "IC50", "setting": "[1]; [6]", "result": 83, "unit": "nM"}, {"measurement": "potency relative to chloroquine", "setting": "[2]; W-2 Indochina strain", "result": "about three times as potent as the classical antimalarial agent chloroquine"}, {"measurement": "activity relative to the natural product Qinghaosu", "setting": "[2]; W-2 Indochina strain, fraction as active as Qinghaosu", "result": "approximately 1/2"}]}
{"smiles": "COc1ncnc(NS(=O)(=O)c2ccc(N)cc2)c1OC", "note": "[sulfadoxine]", "values": [{"measurement": "susceptibility of the clone", "setting": "[3]", "result": "susceptible"}, {"measurement": "susceptibility of the clone", "setting": "[4]", "result": "resistant"}]}
{"smiles": "CCc1nc(N)nc(N)c1-c1ccc(Cl)cc1", "note": "[pyrimethamine]", "values": [{"measurement": "susceptibility of the clone", "setting": "[3]", "result": "susceptible"}, {"measurement": "susceptibility of the clone", "setting": "[4]", "result": "resistant"}]}
{"smiles": "OC(c1cc(C(F)(F)F)nc2c(C(F)(F)F)cccc12)C1CCCCN1", "note": "(stereo not drawn) [Mefloquine]", "values": [{"measurement": "IC50", "setting": "[1]; [5]", "result": 22.2, "unit": "ng/mL"}, {"measurement": "IC50", "setting": "[1]; [6]", "result": 53.7, "unit": "nM"}, {"measurement": "susceptibility of the clone", "setting": "[3]", "result": "resistant"}, {"measurement": "susceptibility of the clone", "setting": "[4]", "result": "susceptible"}]}
